{
  "source": "patent US8809356B2",
  "about": "“Inhibitors of NEDD8-activating enzyme” (Millennium Pharmaceuticals, Inc., priority 2011, dated 2014)",
  "key": {"[1]": {"test": "Pharmacokinetic parameters (plasma AUC) after single subcutaneous administration in HCT116 xenograft mice", "assay_type": "in vivo", "conditions": "I-216 at 10 mg/kg, female Ncr nude mice bearing HCT116 tumor xenografts"}, "NAE": {"target": "T1, NAE (Homo sapiens, UniProt Q8TBC4)", "T1 construct": "endogenous in cells; host or cells: HCT116 (ATCC CCL-247) subcutaneous tumour xenografts in female Ncr nude mice", "T1 sequence (Q8TBC4 1-463)": "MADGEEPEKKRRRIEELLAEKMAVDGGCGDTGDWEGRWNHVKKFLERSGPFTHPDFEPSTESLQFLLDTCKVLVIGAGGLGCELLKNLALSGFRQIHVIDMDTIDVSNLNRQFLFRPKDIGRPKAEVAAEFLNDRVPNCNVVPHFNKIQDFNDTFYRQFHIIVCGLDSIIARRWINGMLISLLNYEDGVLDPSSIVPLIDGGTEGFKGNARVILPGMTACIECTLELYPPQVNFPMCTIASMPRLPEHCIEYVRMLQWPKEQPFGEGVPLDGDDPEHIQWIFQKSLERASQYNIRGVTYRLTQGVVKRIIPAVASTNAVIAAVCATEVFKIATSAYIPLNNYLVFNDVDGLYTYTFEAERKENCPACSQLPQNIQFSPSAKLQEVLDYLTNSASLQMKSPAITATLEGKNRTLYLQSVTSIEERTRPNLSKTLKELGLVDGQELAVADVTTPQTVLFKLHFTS", "T1 sequence (Q13564 1-534 partner)": "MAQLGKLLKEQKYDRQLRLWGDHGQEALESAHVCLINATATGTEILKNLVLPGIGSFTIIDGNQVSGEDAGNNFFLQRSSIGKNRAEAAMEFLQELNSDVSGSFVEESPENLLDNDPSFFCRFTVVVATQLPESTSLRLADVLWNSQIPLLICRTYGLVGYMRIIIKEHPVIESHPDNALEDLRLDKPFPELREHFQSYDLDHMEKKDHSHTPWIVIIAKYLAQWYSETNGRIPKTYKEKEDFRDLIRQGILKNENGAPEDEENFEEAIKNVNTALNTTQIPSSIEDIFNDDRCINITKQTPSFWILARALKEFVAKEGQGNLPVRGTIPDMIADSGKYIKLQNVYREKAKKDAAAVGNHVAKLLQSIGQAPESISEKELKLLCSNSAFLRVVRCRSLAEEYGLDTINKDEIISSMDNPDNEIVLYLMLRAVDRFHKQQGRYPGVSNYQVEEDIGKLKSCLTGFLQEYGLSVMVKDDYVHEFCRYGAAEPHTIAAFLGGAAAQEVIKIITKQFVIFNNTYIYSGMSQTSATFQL", "test": "In vivo Tumor Pharmacodynamic Model (neddylated cullins in HCT116 tumor xenografts)", "design": "species or system female Ncr nude mice", "conditions": "expected from the pharmacodynamic and pharmacokinetic figures (FIGS. 1-3)", "procedure": "HCT116 tumor cells (2×10^6) (ATCC #CCL-247) in 100 μL phosphate buffered saline were aseptically injected into the subcutaneous space in the right dorsal flank of female Ncr nude mice (age 5-8 weeks, Charles River) using a 26-gauge needle. Beginning on day 7 after inoculation, tumors were measured twice weekly using a vernier caliper. Tumor volumes were calculated using standard procedures (0.5×(length×width^2)). When the tumors reached a volume of approximately 3-700 mm^3 mice were randomized into groups and injected subcutaneously with compound inhibitor (200 μL) at various doses. Tumors were harvested and crushed in Covaris bags and then transferred to glass tubes on dry ice for sonication in the Covaris E200. […] Supernatants were transferred to new tubes and protein concentrations were determined using the Pierce bicinchoninic acid (BCA) reagents and protein standards. […]\nFor quantitative analysis of neddylated cullins the procedure was as follows: 20 μg of tumor lysate with lithium dodecyl sulfate (LDS) loading buffer and sample reducing agent (Invitrogen NP0007 and NP0004) was loaded onto 4-12% bis-tris gels, […], 10 well gels (Invitrogen NP0315Box). […] Quantitation of signals on Western blots was performed with the Odyssey software."}},
  "data": [
    {"compound": "CO[C@H]1Cc2cc(Cl)ccc2[C@H]1Nc1cc(O[C@@H]2C[C@@H](COS(N)(=O)=O)[C@@H](O)C2)ncn1", "note": "[I-216, {(1S,2S,4R)-4-[(6-{[(1R,2S)-5-chloro-2-methoxy-2,3-dihydro-1H-inden-1-yl]amino}pyrimidin-4-yl)oxy]-2-hydroxycyclopentyl}methyl sulfamate]", "values": [
      {"measurement": "plasma AUC compared with I-115 at 30 mg/kg", "setting": "[1]", "result": "comparable to that observed for I-115 administered at 30 mg/kg"},
      {"measurement": "plasma AUC compared with I-216 at 30 mg/kg", "setting": "[1]", "result": "approximately half the AUC observed for I-216 administered at 30 mg/kg"},
      {"measurement": "potency as inhibitor of NAE relative to I-115", "setting": "NAE", "result": "2- to 3 fold"}
    ]}
  ]
}
